Laboratory results as given in BindingDB's records for patent WO2022098970 (Eli Lilly, 2022).

Experiments:
Test in all cases: RET Enzyme Assay
[1] = molecular target: Proto-oncogene tyrosine-protein kinase receptor Ret (Homo sapiens, UniProt P07949)
Description: (§1) Compounds of formulas I, la to lx, Ila to IIx, and/or Illa to IIIx are screened for their ability to inhibit wildtype, V804M, and G810S mutant RET kinase using CisBio s HTRF KinEASE -TK assay technology. N-terminal GST tagged recombinant human RET cytoplasmic domain (aa 658-end) from Eurofins (1.25 nM RET; Catalog No. 14-570M) or N-terminal GST tagged recombinant human V804M mutant RET cytoplasmic domain (aa 658-end) from Millipore (1.25 nM enzyme; Catalog No. 14-760) or N-Terminal GST-tagged recombinant human G810S (aa-658-end) (1.25 nM Enzyme; produced in insect cells) is incubated with 62.5 nM TK-substrate biotin (CisBio, part of Catalog No. 62TK0PEC) and 1 mM ATP along with test compound (0.4% final DMSO in the assay) in a IX Cisbuio enzymatic buffer consisting of […], 5 mM MgCh, 0.04% BSA and 0.05% Tween20 in a volume of 10 pL. Compounds are typically prepared in a threefold serial dilution in DMSO and added to the assay to give the appropriate final concentration. After a 40-60 min (40 min for V804M, 60 min for WT and G810S) incubation at 22 °C, the reaction is quenched by adding quench solution (10 pL) containing 7.8 nM Streptavidine-XL665 and 0.5X TK-ab-Cryptate in HTRF detection buffer (all from CisBio, part of Cat. No. 62TK0PEC). After a 60-80 min incubation (60 minutes for WT, 80 minutes for V804M and G810S) at 22 °C, the extent of reaction is determined using a PHERastar plate reader via HTRF detection at excitation/emission 337/665 nm. Percent of inhibition is calculated with 0% inhibition referring to control conditions containing no compound (0.4% DMSO only) and 100% inhibition represented by conditions containing no enzyme. The % inhibition values are fit to a 4 parameter logistic curve, and the determined IC5o value is defined as the estimated concentration of inhibitor at the inflexion point of the fitted curve.

[2] = molecular target: Proto-oncogene tyrosine-protein kinase receptor Ret [V804M] (Human, UniProt P07949, V804M)
Description: as §1

[3] = molecular target: Proto-oncogene tyrosine-protein kinase receptor Ret [G810S] (Homo sapiens, UniProt P07949, G810S)
Description: as §1

Chain of Proto-oncogene tyrosine-protein kinase receptor Ret (P07949 whole entry, the tested form may be a part): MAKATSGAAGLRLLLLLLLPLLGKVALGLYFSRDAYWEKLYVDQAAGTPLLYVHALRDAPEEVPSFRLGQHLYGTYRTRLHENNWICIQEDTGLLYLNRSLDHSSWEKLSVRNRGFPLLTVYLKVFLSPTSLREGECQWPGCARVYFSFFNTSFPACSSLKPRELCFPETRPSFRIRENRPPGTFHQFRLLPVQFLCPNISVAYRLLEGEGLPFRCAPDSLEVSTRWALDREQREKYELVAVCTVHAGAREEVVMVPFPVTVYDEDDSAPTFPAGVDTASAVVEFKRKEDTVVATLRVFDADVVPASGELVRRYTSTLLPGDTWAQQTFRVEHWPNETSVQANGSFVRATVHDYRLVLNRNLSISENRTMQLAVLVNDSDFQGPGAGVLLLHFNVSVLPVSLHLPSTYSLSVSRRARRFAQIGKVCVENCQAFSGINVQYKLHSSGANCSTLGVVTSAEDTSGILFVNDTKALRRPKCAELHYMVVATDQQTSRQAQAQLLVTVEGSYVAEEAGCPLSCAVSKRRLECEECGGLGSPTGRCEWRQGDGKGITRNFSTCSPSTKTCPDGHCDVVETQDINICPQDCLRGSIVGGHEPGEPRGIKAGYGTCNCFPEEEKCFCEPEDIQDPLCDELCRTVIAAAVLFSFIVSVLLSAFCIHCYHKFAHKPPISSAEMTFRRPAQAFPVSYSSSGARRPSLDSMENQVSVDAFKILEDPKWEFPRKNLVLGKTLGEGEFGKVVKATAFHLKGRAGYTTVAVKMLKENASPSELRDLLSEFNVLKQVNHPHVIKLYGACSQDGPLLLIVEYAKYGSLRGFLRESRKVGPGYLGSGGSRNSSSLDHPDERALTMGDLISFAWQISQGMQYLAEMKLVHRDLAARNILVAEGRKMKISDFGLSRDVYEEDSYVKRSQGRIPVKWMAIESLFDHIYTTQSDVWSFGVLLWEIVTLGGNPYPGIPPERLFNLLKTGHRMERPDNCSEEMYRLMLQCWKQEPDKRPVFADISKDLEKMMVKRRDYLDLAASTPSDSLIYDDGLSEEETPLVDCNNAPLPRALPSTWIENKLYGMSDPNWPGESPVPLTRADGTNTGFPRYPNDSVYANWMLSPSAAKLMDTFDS
Chain of Proto-oncogene tyrosine-protein kinase receptor Ret [G810S] (P07949 29-1114 G810S limits assumed): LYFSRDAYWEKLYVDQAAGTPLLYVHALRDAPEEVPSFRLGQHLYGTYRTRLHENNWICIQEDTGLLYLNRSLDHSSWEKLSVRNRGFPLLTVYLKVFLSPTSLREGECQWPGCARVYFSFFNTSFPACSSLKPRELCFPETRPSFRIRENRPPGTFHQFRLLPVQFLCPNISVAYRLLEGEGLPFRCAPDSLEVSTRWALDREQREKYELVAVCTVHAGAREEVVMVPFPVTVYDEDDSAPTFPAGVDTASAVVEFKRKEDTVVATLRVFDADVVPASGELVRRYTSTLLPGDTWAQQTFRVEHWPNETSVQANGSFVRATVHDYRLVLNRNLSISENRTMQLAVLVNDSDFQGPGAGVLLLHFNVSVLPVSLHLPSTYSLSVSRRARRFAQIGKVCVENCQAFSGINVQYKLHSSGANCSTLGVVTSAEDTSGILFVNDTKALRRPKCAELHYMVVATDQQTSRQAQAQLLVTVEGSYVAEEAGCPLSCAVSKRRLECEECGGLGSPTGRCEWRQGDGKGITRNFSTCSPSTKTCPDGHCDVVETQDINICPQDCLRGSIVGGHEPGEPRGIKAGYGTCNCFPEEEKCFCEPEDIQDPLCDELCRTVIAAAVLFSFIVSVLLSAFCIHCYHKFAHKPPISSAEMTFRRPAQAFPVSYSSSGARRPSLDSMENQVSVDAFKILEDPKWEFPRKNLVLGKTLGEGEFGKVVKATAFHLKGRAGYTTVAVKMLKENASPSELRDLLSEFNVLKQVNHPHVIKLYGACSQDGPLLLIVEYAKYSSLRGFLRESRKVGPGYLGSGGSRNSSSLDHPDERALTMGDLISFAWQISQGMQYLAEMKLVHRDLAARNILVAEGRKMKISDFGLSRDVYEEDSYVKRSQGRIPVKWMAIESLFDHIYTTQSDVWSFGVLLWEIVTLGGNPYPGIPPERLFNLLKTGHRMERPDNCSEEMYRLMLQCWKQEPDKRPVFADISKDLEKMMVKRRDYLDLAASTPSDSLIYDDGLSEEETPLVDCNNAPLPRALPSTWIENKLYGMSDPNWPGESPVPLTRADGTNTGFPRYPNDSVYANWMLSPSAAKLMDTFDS
Chain of Proto-oncogene tyrosine-protein kinase receptor Ret [V804M] (P07949 29-1114 V804M limits assumed): as the sequence (P07949 29-1114 G810S limits assumed) above, with V776M, S782G counted along it

SMILES | IC50 [1] [nM] | IC50 [2] [nM] | IC50 [3] [nM]
CC(C)n1nc(-c2ccc(CC(=O)Nc3cc(C45CC(F)(C4)C5)no3)cc2)c(C(N)=O)c1N [WO2022098970, Example 4] | < 150 | < 150 | < 150
CC(C)n1nc(-c2ccc(CC(=O)NC3C=C(C(C)(C)C)SN3)cn2)c(C(N)=O)c1N (configuration not stated) [WO2022098970, Example 10] | < 150 | < 150 | < 150
CC(C)n1nc(-c2ccc(CC(=O)Nc3cc(C(C)(C)C(F)(F)F)no3)cc2)c(C(N)=O)c1N [WO2022098970, Example 2] | < 150 | < 150 | < 150
CC(C)n1nc(-c2ccc(CC(=O)Nc3cc(C4(C)CCCC4)no3)cc2)c(C(N)=O)c1N [WO2022098970, Example 3] | < 150 | < 150 | < 150
CC1(n2nc(-c3ccc(CC(=O)Nc4cc(C(C)(C)C(F)(F)F)no4)cc3)c(C(N)=O)c2N)CC1 [WO2022098970, Example 6] | < 150 | < 150 | < 150
CC(C)n1nc(-c2ccc(CC(=O)Nc3cc(C4(C)CCCC4)no3)cn2)c(C(N)=O)c1N [WO2022098970, Example 294] | < 150 | < 150 | < 150
CC(C)n1nc(-c2ccc(CC(=O)Nc3cc(C(C)(C)C(F)(F)F)on3)cn2)c(C(N)=O)c1N [WO2022098970, Example 293] | < 150 | < 150 | < 150
CC1(n2nc(-c3ccc(CC(=O)Nc4cc(-c5ccc(F)cc5Cl)no4)cc3)c(C(N)=O)c2N)CC1 [WO2022098970, Example 199] | < 150 | < 150 | < 150
CC(C)n1nc(-c2ccc(CC(=O)Nc3cc(C45CC(C4)C5)no3)cc2)c(C(N)=O)c1N [WO2022098970, Example 5] | < 150 | < 150 | < 150
CC(C)n1nc(-c2ccc(CC(=O)Nc3cc(C(C)(C)C(F)(F)F)n(C)n3)cc2)c(C(N)=O)c1N [WO2022098970, Example 8] | < 150 | < 150 | < 150
CC12CC(c3cc(NC(=O)Cc4ccc(-c5nn(C6(C)CC6)c(N)c5C(N)=O)c(F)c4F)on3)(C1)C2 [WO2022098970, Example 222] | < 150 | < 150 | < 150
CC(C)n1nc(-c2ccc(CC(=O)Nc3cc(C4(C)CC4)no3)cc2)c(C(N)=O)c1N [WO2022098970, Example 7] | < 150 | < 150 | < 150
CC1(n2nc(-c3ccc(CC(=O)Nc4cc(C56CC(F)(C5)C6)no4)c(F)c3F)c(C(N)=O)c2N)CC1 [WO2022098970, Example 221] | < 150 | < 150 | < 150
CC(C)n1nc(-c2ccc(CC(=O)Nc3cccc(C(F)(F)F)c3)cn2)c(C(N)=O)c1N [WO2022098970, Example 292] | < 150 | < 150 | < 150
CC(C)n1nc(-c2ccc(CC(=O)Nc3cc(CC(C)(C)C)no3)c(F)c2F)c(C(N)=O)c1N [WO2022098970, Example 154] | < 150 | < 150 | < 150
CC(C)n1nc(-c2ccc(CC(=O)Nc3cc(CC4(C)CC4)no3)cc2)c(C(N)=O)c1N [WO2022098970, Example 1] | < 150 | < 150 | < 150
CC(C)n1nc(-c2ccc(CC(=O)Nc3cc(C45CC(C(F)(F)F)(C4)C5)no3)cc2)c(C(N)=O)c1N [WO2022098970, Example 153] | < 150 | < 150 | < 150

More lines, now with the values ahead:

IC50 [1] [nM] | IC50 [2] [nM] | IC50 [3] [nM] | SMILES
< 150 | < 150 | < 150 | CC(C)n1nc(-c2ccc(CC(=O)Nc3cc(-c4ccc(F)cc4Cl)no3)cn2)c(C(N)=O)c1N [WO2022098970, Example 302]
< 150 | < 150 | < 150 | CC(C)n1nc(-c2ccc(CC(=O)Nc3cc(-c4ccccc4Cl)no3)nc2)c(C(N)=O)c1N [WO2022098970, Example 317]
< 150 | < 150 | < 150 | CC(C)n1nc(-c2ccc(CC(=O)Nc3cc(-c4ccc(Cl)cc4Cl)no3)cn2)c(C(N)=O)c1N [WO2022098970, Example 300]
< 150 | < 150 | < 150 | CCC(C)(C)c1cc(NC(=O)Cc2ccc(-c3nn(C(C)C)c(N)c3C(N)=O)nc2)on1 [WO2022098970, Example 303]
< 150 | < 150 | < 150 | CCC(C)(C)c1cc(NC(=O)Cc2cnc(-c3nn(C(C)C)c(N)c3C(N)=O)cn2)on1 [WO2022098970, Example 310]
< 150 | < 150 | < 150 | CC(C)n1nc(-c2ccc(CC(=O)Nc3cc(-c4ccc(Cl)c(F)c4Cl)no3)nc2)c(C(N)=O)c1N [WO2022098970, Example 330]
< 150 | < 150 | < 150 | CC(C)n1nc(-c2cnc(CC(=O)Nc3cc(-c4ccc(Cl)cc4Cl)no3)cn2)c(C(N)=O)c1N [WO2022098970, Example 308]
< 150 | < 150 | < 150 | CC(C)n1nc(-c2ccc(CC(=O)Nc3cc(C(C)(C)C)on3)nc2)c(C(N)=O)c1N [WO2022098970, Example 318]
< 150 | < 150 | < 150 | CC(C)n1nc(-c2ccc(CC(=O)Nc3cc(-c4ccccc4)no3)cn2)c(C(N)=O)c1N [WO2022098970, Example 299]
< 150 | < 150 | < 150 | CC(C)n1nc(-c2ccc(CC(=O)Nc3cc(C(C)(C)CC(F)(F)F)on3)nc2)c(C(N)=O)c1N [WO2022098970, Example 335]
< 150 | < 150 | < 150 | CC(C)n1nc(-c2ccc(CC(=O)Nc3cc(-c4ccc(Cl)cc4F)no3)nc2)c(C(N)=O)c1N [WO2022098970, Example 321]
< 150 | < 150 | < 150 | Cc1ccc(-c2cc(NC(=O)Cc3ccc(-c4nn(C(C)C)c(N)c4C(N)=O)cn3)on2)c(F)c1 [WO2022098970, Example 324]
< 150 | < 150 | < 150 | CC(C)n1nc(-c2ccc(CC(=O)Nc3ccc(CN4CCN(C)CC4)c(C(F)(F)F)c3)nc2)c(C(N)=O)c1N [WO2022098970, Example 329]
< 150 | < 150 | < 150 | CC(C)n1nc(-c2ccc(CC(=O)Nc3cc(C4CCCCC4)no3)cn2)c(C(N)=O)c1N [WO2022098970, Example 301]
< 150 | < 150 | < 150 | CC(C)n1nc(-c2ccc(CC(=O)Nc3cc(C(C)(F)F)no3)cn2)c(C(N)=O)c1N [WO2022098970, Example 306]
< 150 | < 150 | < 150 | CC(C)n1nc(-c2cnc(CC(=O)Nc3cc(C(C)(C)C)on3)cn2)c(C(N)=O)c1N [WO2022098970, Example 311]
< 150 | < 150 | < 150 | CC(C)n1nc(-c2ccc(CC(=O)Nc3cc(-c4ccc(Cl)cc4Cl)no3)nc2)c(C(N)=O)c1N [WO2022098970, Example 316]
